Residues, ends and D or L forms follow the SMILES beside them. *: point of attachment. Propionyl = CCC(=O)*; NHPh = c1ccc(N*)cc1

A word on the melting point: it is the temperature of the solid-liquid transition. In turn, `CCOC(=O)Cc1ncnc2c([N+](=O)[O-])cccc12` displayed a melting point of 162 to 164 °C.

In turn, `CCOc1cc(N)c(Cl)cc1C(=O)NC1CCN(CC2CCN(C(=S)N(C)C)CC2)CC1` came in with a melting point of 210 to 212 °C.

`O=C(O)Cc1ccc(NC(=O)C(CCc2ccccc2)NS(=O)(=O)c2ccc(Cl)cc2)cc1` (racemic) gave a melting point of 163 to 167 °C.

Turning to `Cn1c(C(F)(F)F)cc(=O)n(-c2ccc(O)cc2F)c1=O`, the melting point is 185 to 190 °C.

Compound `COC(=O)CC(=O)NCc1ccccc1` returned a melting point of 51 to 54 °C.

On to `C(=C\c1nc(COc2ccc(CCCn3ccnn3)cc2)co1)/c1ccccc1`, for which the melting point lay within 142 to 143 °C.

With `CCOC(=O)CCC=Cc1ccc2ccccc2c1O`, the melting point lay within 63 to 64 °C.

`C=C(C)CN(CC)c1nc(N2CCN(C(=O)NC(c3ccccc3)c3ccccc3)CC2)nc(N(CC)CC(=C)C)n1` registered a melting point of 178 to 180 °C.

Turning to `CSC1=Nc2c(C)ccnc2N(C2CC2)c2ncccc21`, the melting point was 173 to 177 °C.

For the compound `COc1ccc2c(c1)CCc1c-2n(-c2ccc(O[Si](C)(C)C(C)(C)C)cc2)c(=O)c2cc(OC)ccc12`, the melting point lay within 194 to 195 °C.

The compound `COc1ccc(CN(Cc2ccc(OC)cc2)c2nc(-c3ccccc3)c(-c3ccc(=O)n(C(C)C)n3)nc2C#N)cc1` returned a melting point of 207 to 209 °C.

On to `CC(C)(C)c1ccc(CCC(C=O)CC2CCCCC2)cc1NC(=O)CC1c2ccccc2Oc2ccccc21` (stereo not given), for which the melting point is 117 to 118 °C.

In the case of `COc1ccc(C(=O)Nc2ccc(F)cc2)cc1Nc1ccc(F)cc1`, the melting point lay within 193 to 194 °C.

In turn, `Cc1cccc(-n2c(=O)[nH]c3ccc(F)cc3c2=O)c1` returned a melting point of 278 to 279 °C.

As to `O=C(O)CCc1ccc(OCCc2ccccc2)cc1`, the melting point is 91 to 92 °C.

`Cn1c(COc2ccc(CC3SC(=O)N(C(c4ccccc4)(c4ccccc4)c4ccccc4)C3=O)cc2)nc2cc(Cl)cnc21` (stereo not given): the melting point lay in the range of 82 to 84 °C.

`O=C1CCC(c2ccc3[nH]c(-c4cccnc4)cc3c2)=NN1` yielded a melting point of 298 to 300 °C.

Consider `CSc1nc2ccc(Br)cc2c2nn(-c3ccc(C)cc3)c(=O)n12`, for which the melting point was determined as 213 °C.

`CCCCC/C(=C\C=C\C(=O)NCCCCc1cccnc1)c1ccc(OC)cc1` returned a melting point of 81.5 to 82.5 °C.

In turn, `Nc1ccc(S(=O)(=O)c2cc(-c3ccccc3F)nc(N3CCCC3)c2)cc1` had a melting point of 246 to 248 °C.

Compound `Cc1c(C#N)oc2c(-c3ccc(F)cc3)c(-c3ccc(S(C)(=O)=O)cc3)nn12` had a melting point of 236 to 238 °C.

For the compound `CCC#C[C@]1(C(F)(F)F)O[C@@H](c2ccccc2)C(=O)Nc2ccc(Cl)cc21` (relative stereo), the melting point lay in the range of 198 to 199 °C.

Compound `O=C1Nc2ccc(Cl)cc2C2(c3ccccc3)OCCCN12` (stereo not given) had a melting point of 202 to 204 °C.

Regarding `N#Cc1cnc2ccsc2c1Oc1ccc(Cl)cc1Cl`, the melting point was in the range of 158 to 160 °C.

As for `Cc1cc(C=O)c(Cl)nc1C`, the melting point lay within 69 to 70 °C.

`CSc1nn2c(N)cc(N3CCN(C)CC3)nc2c1S(=O)(=O)c1ccccc1` had a melting point of more than 230 °C.

For `CCCCc1oc2ccccc2c1C(=O)N(C)Cc1ccc2c(Br)c(OCc3nnn[nH]3)ccc2c1`, the melting point fell in the range of 190 to 194 °C.

The compound `COc1cc(O)c2c(c1O)CC(C)=C(C)C2` showed a melting point of 200 to 201 °C.

`CCC(=O)N[C@@H](C)C(=O)N[C@@H](C)C(=O)Nc1ccccc1` (Propionyl-Ala-Ala-NHPh) displayed a melting point of 281 to 284 °C.

`CCOC(=O)c1c(OC(C)C)c(Br)c(Br)n1Cc1ccccc1` returned a melting point of 46 to 48 °C.

The compound `CCc1nc(C)[nH]c1Sc1ccccc1` came in with a melting point of 171 °C.

As to `C(=CCON(Cc1ccccc1)Cc1ccccc1)CON(Cc1ccccc1)Cc1ccccc1`, the melting point lay within 82 to 85 °C.

`O=C(O)CCn1c(=O)c(=O)[nH]c2cc(C(F)(F)F)c(-n3cccc3)cc21` had a melting point of 190 to 192 °C.

On to `COc1ccc2c(c1)Oc1c(cccc1OCc1ccccc1)C2`, for which the melting point lay in the range of 107 to 108 °C.

The compound `CC(=O)NC[C@H]1CN(c2ccc(N3CCC(Cc4nnc(N)s4)CC3)c(F)c2)C(=O)O1` yielded a melting point of 206 to 207 °C.

`Cc1sc(-c2ccc(OC(F)(F)F)cc2)cc1-c1nc(-c2c(F)cccc2Cl)nn1C` displayed a melting point of 153 to 155 °C.

Consider `CCN1CCc2ccc(Nc3ncc(Cl)c(N[C@H]4CCC[C@H]4C(N)=O)n3)cc2CC1` (relative stereo), for which the melting point lay in the range of 237 to 242 °C.

`CC1(C)CC(O)c2cc(OCc3ccccc3)ccc2O1` (stereo not given) yielded a melting point of 83 to 84 °C.

Consider `CS(=O)(=O)c1ccc(-c2cc(C(F)(F)F)nn2-c2ccc(CO)cc2)cc1`, for which the melting point lay in the range of 129 to 133 °C.

Turning to `CC1=C(C#N)C(=C(C#N)C#N)OC1(C)C`, the melting point was 203 °C.

For `CC1(C)c2cccnc2C(=O)c2ccc(Cl)cc2S1(=O)=O`, the melting point was 189 to 191 °C.

In turn, `Cc1[nH]c2ccc(C3=NNC(=O)NC3C)cc2c1C` (stereo not given) showed a melting point of 292 to 296 °C.

The compound `Cc1c(F)cccc1Cc1c(-c2ccccc2)c2ccccn2c1C(=O)N1CCN(C(=O)OC(C)(C)C)[C@@H](CCO[Si](C)(C)C(C)(C)C)C1` yielded a melting point of 70 °C.

With `O=C(c1cccc(-c2ccccc2)c1C(=O)C(Cl)(Cl)Cl)C(Cl)(Cl)Cl`, the melting point lay within 137 to 152 °C.

`CC(=O)NC(CCc1ccccc1)(COC(C)=O)COC(C)=O` had a melting point of 116 to 117 °C.

Turning to `CC(C)(C)c1nc(-c2ncn3c2COC(=O)c2ccccc2-3)no1`, the melting point was in the range of 210 to 211 °C.

In turn, `CCCc1c(OCCCCOc2ccc(C(=O)c3cccc(C(=O)O)c3)cc2CCC(=O)O)ccc2c1OCCC2=O` had a melting point of 177 to 180 °C.

Take `COC(=O)/C=C/c1c(SC(F)(F)F)c(C#N)nn1-c1c(Cl)cc(C(F)(F)F)cc1Cl`: the melting point worked out at 90 °C.

As for `CCOc1ccc(N2CCN(c3c(C)c4c(c(OC)c3C)OC(C)(C)C4)CC2)cc1`, the melting point fell in the range of 152 to 154 °C.

Take `CC(C)N(Cc1c(-c2ccccc2)sc(N)c1C(=O)c1ccc(Cl)cc1)C(C)C`: the melting point fell in the range of 185 to 187 °C.

`COC(=O)c1cccc(C2CCCS2)c1N` (stereo not given) gave a melting point of 75 to 79 °C.

The compound `CCOC(=O)Cc1ccc(NC(=O)C(COc2ccccc2Cl)NS(=O)(=O)c2ccc(Cl)cc2)cc1` (racemic) gave a melting point of 141 to 142 °C.

`Cc1ccccc1OCCCc1oc(-n2ccnc2)nc1-c1ccc(Cl)cc1` returned a melting point of 113 to 114 °C.

`COC(=O)CCCC#Cc1cc(F)cc(C(F)(F)F)c1` showed a melting point of 44 to 45 °C.

As for `CNC(C)CN1CCc2c(c(=O)oc3cc(OC)c(OC)cc23)C1` (stereo not given), the melting point was 137 to 139 °C.

Consider `CC(C)c1nc(C(C)C)c(CNC2CC2)c(-c2ccc(F)cc2)c1CO`, for which the melting point lay in the range of 81 to 83 °C.

`CCN1c2ncccc2C(=O)Nc2c1nc(N(C)C)c(Br)c2C` came in with a melting point of 184 to 186 °C.

`CCOC(=O)C(N)c1ccc(C(C)=O)cc1` (stereo not given) displayed a melting point of 77 to 78 °C.

The compound `CC1CN2C(=O)c3nc[nH]c3N(Cc3ccc(Cl)cc3)C2=N1` (stereo not given) had a melting point of 259 to 260 °C.

`CCCCc1cn(-c2c(Cl)cccc2Cl)c(=O)n1Cc1ccc(-c2ccccc2-c2nnn[nH]2)nc1` displayed a melting point of 212 °C.
